According to US8143243B2, “Compounds for the treatment of hepatitis C” (Bristol-Myers Squibb Company, priority 2007, dated 2012):
pIC50: −log10 of the molar value.

target: T1, HCV NS5B (Hepatitis C virus genotype 1b, UniProt Q9WMX2); experiment: HCV NS5B RdRp enzyme assay (standard / modified); assay type: biochemical; details: not given
T1 construct: The protein was expressed with an 18 amino acid C-terminal truncation to enhance the solubility; made in house; host or cells: E. coli BL21 (DE3)
T1 sequence (Q9WMX2 2420-2992): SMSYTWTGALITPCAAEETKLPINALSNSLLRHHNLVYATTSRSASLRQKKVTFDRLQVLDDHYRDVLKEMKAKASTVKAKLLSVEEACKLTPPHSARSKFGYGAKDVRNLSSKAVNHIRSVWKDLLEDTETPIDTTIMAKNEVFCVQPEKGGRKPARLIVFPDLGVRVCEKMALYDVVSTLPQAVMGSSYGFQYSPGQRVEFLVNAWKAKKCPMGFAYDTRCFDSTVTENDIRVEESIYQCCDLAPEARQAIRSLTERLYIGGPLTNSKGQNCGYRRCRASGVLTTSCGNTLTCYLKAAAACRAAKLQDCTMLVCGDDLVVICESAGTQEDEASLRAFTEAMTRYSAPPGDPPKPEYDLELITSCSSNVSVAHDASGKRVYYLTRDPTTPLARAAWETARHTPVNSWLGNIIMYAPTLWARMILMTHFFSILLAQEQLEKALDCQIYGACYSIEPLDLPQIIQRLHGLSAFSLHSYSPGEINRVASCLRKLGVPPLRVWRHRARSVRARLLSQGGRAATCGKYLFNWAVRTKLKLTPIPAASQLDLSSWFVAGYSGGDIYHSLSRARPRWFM
Experimental: HCV NS5B RdRp cloning, expression, and purification. The cDNA encoding the NS5B protein of HCV, genotype 1b, was cloned into the pET21a expression vector. The protein was expressed with an 18 amino acid C-terminal truncation to enhance the solubility. The E. coli competent cell line BL21 (DE3) was used for expression of the protein. Cultures were grown at 37° C. for ˜4 hours until the cultures reached an optical density of 2.0 at 600 nm. The cultures were cooled to 20° C. and induced with 1 mM IPTG. Fresh ampicillin was added to a final concentration of 50 μg/ml and the cells were grown overnight at 20° C.
Cell pellets (3 L) were lysed for purification to yield 15-24 mgs of purified NS5B. The lysis buffer consisted of 20 mM Tris-HCl, pH 7.4, 500 mM NaCl, 0.5% triton X-100, 1 mM DTT, 1 mM EDTA, 20% glycerol, 0.5 mg/ml lysozyme, 10 mM MgCl2, 15 ug/ml deoxyribonuclease I, and Complete TM protease inhibitor tablets (Roche). After addition of the lysis buffer, frozen cell pellets were resuspended using a tissue homogenizer. To reduce the viscosity of the sample, aliquots of the lysate were sonicated on ice using a microtip attached to a Branson sonicator. The sonicated lysate was centrifuged at 100,000×g for 1 hr at 4° C. and filtered through a 0.2 μm filter unit (Corning).
The protein was purified using three sequential chromatography steps: Heparin sepharose CL-6B, polyU sepharose 4B, and Hitrap SP sepharose (Pharmacia). The chromatography buffers were identical to the lysis buffer but contained no lysozyme, deoxyribonuclease I, MgCl2 or protease inhibitor and the NaCl concentration of the buffer was adjusted according to the requirements for charging the protein onto the column. Each column was eluted with a NaCl gradient which varied in length from 5-50 column volumes depending on the column type. After the final chromatography step, the resulting purity of the enzyme is >90% based on SDS-PAGE analysis. The enzyme was aliquoted and stored at −80° C.
Standard HCV NS5B RdRp enzyme assay. HCV RdRp genotype 1b assays were run in a final volume of 60 μl in 96 well plates (Costar 3912). The assay buffer is composed of 20 mM Hepes, pH 7.5, 2.5 mM KCl, 2.5 mM MgCl2, 1 mM DTT, 1.6 U RNAse inhibitor (Promega N2515), 0.1 mg/ml BSA (Promega R3961), and 2% glycerol. All compounds were serially diluted (3-fold) in DMSO and diluted further in water such that the final concentration of DMSO in the assay was 2%. HCV RdRp genotype 1b enzyme was used at a final concentration of 28 nM. A polyA template was used at 6 nM, and a biotinylated oligo-dT12 primer was used at 180 nM final concentration. Template was obtained commercially (Amersham 27-4110). Biotinylated primer was prepared by Sigma Genosys. 3H-UTP was used at 0.6 μCi (0.29 μM total UTP). Reactions were initiated by the addition of enzyme, incubated at 30° C. for 60 min, and stopped by adding 25 μl of 50 mM EDTA containing SPA beads (4 μg/μl, Amersham RPNQ 0007). Plates were read on a Packard Top Count NXT after >1 hr incubation at room temperature.
Modified HCV NS5B RdRp enzyme assay. A modified enzyme assay was performed essentially as described for the standard enzyme assay except for the following: The biotinylated oligo dT12 primer was precaptured on streptavidin-coated SPA beads by mixing primer and beads in assay buffer and incubating at room temperature for one hour. Unbound primer was removed after centrifugation. The primer-bound beads were resuspended in 20 mM Hepes buffer, pH 7.5 and used in the assay at final concentrations of 20 nM primer and 0.67 μg/μl beads. Order of addition in the assay: enzyme (14 nM) was added to diluted compound followed by the addition of a mixture of template (0.2 nM), 3H-UTP (0.6 μCi, 0.29 μM), and primer-bound beads, to initiate the reaction; concentrations given are final. Reactions were allowed to proceed for 4 hours at 30° C.
IC50 values for compounds were determined using seven different [I]. […]

Row | SMILES | pIC50
1 | COc1ccc2c(c1)C=C(c1c(C(=O)N3[C@H]4CC[C@@H]3CC4)cnn1C)Cn1c-2c(C2CCCCC2)c2ccc(C(=O)NS(=O)(=O)C(C)C)cc21 | 6.30 to 9.00

same assay, conditions: HCV RdRp genotype 1b enzyme; read-out: IC50

Row | SMILES | pIC50
2 | CCOC(=O)c1cnn(C)c1C1=Cc2cc(OC)ccc2-c2c(C3CCCCC3)c3ccc(C(=O)NS(=O)(=O)C4CCC4)cc3n2C1 | 6.30 to 9.00
3 | COc1ccc2c(c1)C=C(c1c(C(=O)N3C[C@@H](C)N(C)[C@@H](C)C3)cnn1C)Cn1c-2c(C2CCCCC2)c2ccc(C(=O)NS(=O)(=O)C3CCCC3)cc21 | 6.30 to 9.00
4 | COc1ccc2c(c1)C=C(c1nn(C(C)C)c(C)c1C(=O)N1C[C@@H](C)O[C@@H](C)C1)Cn1c-2c(C2CCCCC2)c2ccc(C(=O)NS(=O)(=O)C(C)C)cc21 [drawing 617] | 6.30 to 9.00
5 | COc1ccc2c(c1)C=C(c1c(C(=O)N3C[C@@H](C)N(C)[C@@H](C)C3)cnn1C)Cn1c-2c(C2CCCCC2)c2ccc(C(=O)NS(=O)(=O)CC(C)C)cc21 | 6.30 to 9.00
6 | CCC(C)S(=O)(=O)NC(=O)c1ccc2c(C3CCCCC3)c3n(c2c1)CC(c1c(C(=O)N2C[C@@H]4C[C@H]2CN4CC)cnn1C)=Cc1cc(OC)ccc1-3 (stereo partly drawn) | 6.30 to 9.00
7 | CCN1C[C@@H]2C[C@H]1CN2C(=O)c1cnn(C)c1C1=Cc2cc(OC)ccc2-c2c(C3CCCCC3)c3ccc(C(=O)NS(=O)(=O)C4CCCC4)cc3n2C1 | 6.30 to 9.00
8 | COc1ccc2c(c1)C=C(c1c(C(=O)N3CC4CCC(C3)O4)c(C)nn1C(C)C)Cn1c-2c(C2CCCCC2)c2ccc(C(=O)NS(=O)(=O)C(C)C)cc21 | 6.30 to 9.00
9 | CCN(C(=O)c1cnn(C)c1C1=Cc2cc(OC)ccc2-c2c(C3CCCCC3)c3ccc(C(=O)NS(=O)(=O)C4CCCC4)cc3n2C1)C(C)C | 6.30 to 9.00
10 | COc1ccc2c(c1)C=C(c1c(C(=O)N3CCN4CCCC4C3)cnn1C)Cn1c-2c(C2CCCCC2)c2ccc(C(=O)NS(=O)(=O)CC(C)C)cc21 (stereo not drawn) | 6.30 to 9.00
11 | COc1ccc2c(c1)C=C(c1c(C(=O)N3CCN4CCCC4C3)cnn1C)Cn1c-2c(C2CCCCC2)c2ccc(C(=O)NS(=O)(=O)C3CCCC3)cc21 (stereo not drawn) | 6.30 to 9.00
12 | CCc1nnc(CN(C(=O)c2cnn(C)c2C2=Cc3cc(OC)ccc3-c3c(C4CCCCC4)c4ccc(C(=O)NS(=O)(=O)C(C)C)cc4n3C2)C(C)C)o1 | 6.30 to 9.00
13 | COC(=O)c1c(C)nn(C)c1C1=Cc2cc(OC)ccc2-c2c(C3CCCCC3)c3ccc(C(=O)NS(=O)(=O)N(C)C)cc3n2C1 | 6.30 to 9.00
14 | COc1ccc2c(c1)C=C(c1c(C(=O)N3C[C@@H](C)O[C@@H](C)C3)cnn1C)Cn1c-2c(C2CCCCC2)c2ccc(C(=O)NS(=O)(=O)C3CCC3)cc21 | 6.30 to 9.00
15 | CCOC(=O)c1cnn(C)c1C1=Cc2cc(OC)ccc2-c2c(C3CCCCC3)c3ccc(C(=O)NS(=O)(=O)CC(C)C)cc3n2C1 | 6.30 to 9.00
16 | COc1ccc2c(c1)C=C(c1c(C(=O)N3CCCC(N(C)C)C3)cnn1C)Cn1c-2c(C2CCCCC2)c2ccc(C(=O)NS(=O)(=O)CC(C)C)cc21 (stereo not drawn) | 6.30 to 9.00
17 | COc1ccc2c(c1)C=C(c1c(C(=O)O)cnn1C)Cn1c-2c(C2CCCCC2)c2ccc(C(=O)NS(=O)(=O)C3CCC3)cc21 | 6.30 to 9.00
18 | COc1ccc2c(c1)C=C(c1nn(C(C)C)c(C)c1C(=O)N1C[C@@H](C)O[C@@H](C)C1)Cn1c-2c(C2CCCCC2)c2ccc(C(=O)NS(=O)(=O)C(C)C)cc21 [drawing 622] | 6.30 to 9.00
19 | COc1ccc2c(c1)C=C(c1c(C(=O)N3C[C@@H](C)O[C@@H](C)C3)cnn1C)Cn1c-2c(C2CCCCC2)c2ccc(C(=O)NS(=O)(=O)C3CCCC3)cc21 | 6.30 to 9.00
20 | COc1ccc2c(c1)C=C(c1c(C(=O)O)cnn1C)Cn1c-2c(C2CCCCC2)c2ccc(C(=O)NS(=O)(=O)C(C)C)cc21 | 6.30 to 9.00
21 | COc1ccc2c(c1)C=C(c1c(C(=O)N3CCCC(N(C)C)C3)cnn1C)Cn1c-2c(C2CCCCC2)c2ccc(C(=O)NS(=O)(=O)C3CCCC3)cc21 (stereo not drawn) | 6.30 to 9.00
22 | CCn1nc(C)c(C(=O)N2CCO[C@H](COC)C2)c1C1=Cc2cc(OC)ccc2-c2c(C3CCCCC3)c3ccc(C(=O)NS(=O)(=O)C(C)C)cc3n2C1 | 6.30 to 9.00
23 | CCn1nc(C)c(C(=O)N2C[C@@H](C)N(C)[C@@H](C)C2)c1C1=Cc2cc(OC)ccc2-c2c(C3CCCCC3)c3ccc(C(=O)NS(=O)(=O)C(C)C)cc3n2C1 | 6.30 to 9.00
24 | CCN1CC2CC1CN2C(=O)c1cnn(C)c1C1=Cc2cc(OC)ccc2-c2c(C3CCCCC3)c3ccc(C(=O)NS(=O)(=O)CC(C)C)cc3n2C1 (stereo not drawn) | 6.30 to 9.00
25 | CCOC(=O)c1cnn(C)c1C1=Cc2cc(OC)ccc2-c2c(C3CCCCC3)c3ccc(C(=O)NS(=O)(=O)C(C)CC)cc3n2C1 (stereo not drawn) | 6.30 to 9.00
26 | COC(=O)c1c(C)nn(C)c1C1=Cc2cc(OC)ccc2-c2c(C3CCCCC3)c3ccc(C(=O)NS(=O)(=O)CC(C)C)cc3n2C1 | 6.30 to 9.00
27 | CCC(C)S(=O)(=O)NC(=O)c1ccc2c(C3CCCCC3)c3n(c2c1)CC(c1c(C(=O)N2CCN4CCCC4C2)cnn1C)=Cc1cc(OC)ccc1-3 (stereo not drawn) | 6.30 to 9.00
28 | CCn1ncc(C(=O)N2CC3CCC(C2)O3)c1C1=Cc2cc(OC)ccc2-c2c(C3CCCCC3)c3ccc(C(=O)NS(=O)(=O)C(C)C)cc3n2C1 | 6.30 to 9.00
29 | COc1ccc2c(c1)C=C(c1c(C(=O)N(Cc3ccccc3OC)C(C)C)cnn1C)Cn1c-2c(C2CCCCC2)c2ccc(C(=O)NS(=O)(=O)C(C)C)cc21 | 6.30 to 9.00
30 | COc1ccc2c(c1)C=C(c1c(C(=O)N3C[C@@H](C)N(C)[C@@H](C)C3)cnn1C)Cn1c-2c(C2CCCCC2)c2ccc(C(=O)NS(=O)(=O)C3CCC3)cc21 | 6.30 to 9.00
